Data taken from PubChem BioAssay (NCI).
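All cell lines were grown in 96-well plates and treated with compound for 48 hours. Abbreviation: GI50, concentration required for 50% inhibition of growth. At the TGI there is no net growth.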

Tests used:
Test in all cases: DTP human tumour cell line panel, 48 h
OVCAR-8 ovarian = test system: OVCAR-8 ovarian
CCRF-CEM leukemia = test system: CCRF-CEM leukemia
HOP-92 NSCLC = test system: HOP-92 NSCLC
NCI-H23 lung = test system: NCI-H23 lung
LOX IMVI melanoma = test system: LOX IMVI melanoma
SK-MEL-5 melanoma = test system: SK-MEL-5 melanoma
EKVX NSCLC = test system: EKVX NSCLC
NCI/ADR-RES ovarian = test system: NCI/ADR-RES ovarian
TK-10 renal = test system: TK-10 renal
RXF 393 renal = test system: RXF 393 renal
SK-OV-3 ovarian = test system: SK-OV-3 ovarian
PC-3 prostate = test system: PC-3 prostate
HS 578T breast = test system: HS 578T breast
U251 CNS = test system: U251 CNS
UACC-257 melanoma = test system: UACC-257 melanoma
T-47D breast = test system: T-47D breast
NCI-H460 lung = test system: NCI-H460 lung
HCT-116 colon = test system: HCT-116 colon
MDA-MB-435 = test system: MDA-MB-435
CAKI-1 renal = test system: CAKI-1 renal
HCT-15 colon = test system: HCT-15 colon
HCC-2998 colon = test system: HCC-2998 colon
DU-145 prostate = test system: DU-145 prostate
MDA-MB-231 breast = test system: MDA-MB-231 breast
ACHN renal = test system: ACHN renal
HOP-62 NSCLC = test system: HOP-62 NSCLC
UO-31 renal = test system: UO-31 renal
HT29 colon = test system: HT29 colon
MDA-MB-468 breast = test system: MDA-MB-468 breast
SNB-75 CNS = test system: SNB-75 CNS
KM12 colon = test system: KM12 colon
COLO 205 colon = test system: COLO 205 colon
SF-539 CNS = test system: SF-539 CNS
A549 NSCLC = test system: A549 NSCLC
OVCAR-3 ovarian = test system: OVCAR-3 ovarian
SNB-19 CNS = test system: SNB-19 CNS
SF-268 CNS = test system: SF-268 CNS
IGROV1 ovarian = test system: IGROV1 ovarian
HL-60(TB) leukemia = test system: HL-60(TB) leukemia
OVCAR-4 ovarian = test system: OVCAR-4 ovarian
SN12C renal = test system: SN12C renal
MOLT-4 leukemia = test system: MOLT-4 leukemia
NCI-H226 lung = test system: NCI-H226 lung
M14 melanoma = test system: M14 melanoma
OVCAR-5 ovarian = test system: OVCAR-5 ovarian
SK-MEL-28 melanoma = test system: SK-MEL-28 melanoma
BT-549 breast = test system: BT-549 breast
NCI-H522 lung = test system: NCI-H522 lung
SF-295 CNS = test system: SF-295 CNS
SR leukemia = test system: SR leukemia
A498 renal = test system: A498 renal
MALME-3M melanoma = test system: MALME-3M melanoma
UACC-62 melanoma = test system: UACC-62 melanoma
MCF7 breast = test system: MCF7 breast
K-562 leukemia = test system: K-562 leukemia
RPMI-8226 leukemia = test system: RPMI-8226 leukemia
SK-MEL-2 melanoma = test system: SK-MEL-2 melanoma
SW-620 colon = test system: SW-620 colon
786-0 renal = test system: 786-0 renal

In the case of `Cc1ccc(C2CC(c3ccc(NC(=S)Nc4ccccc4)cc3)=NN2c2ccc(S(N)(=O)=O)cc2)cc1` (stereo not drawn), the GI50 (OVCAR-8 ovarian) is reported as 5.96 µM, the TGI (OVCAR-8 ovarian) is reported as 67.8 µM and the GI50 (CCRF-CEM leukemia) is reported as 3.18 µM. It also gave a TGI (CCRF-CEM leukemia) of 53.1 µM, a GI50 (HOP-92 NSCLC) of 3.81 µM and a TGI (HOP-92 NSCLC) of 22 µM. For the same compound, the GI50 (NCI-H23 lung) was 5.79 µM, the TGI (NCI-H23 lung) was 34 µM and the GI50 (LOX IMVI melanoma) was 4.76 µM. It also gave a TGI (LOX IMVI melanoma) of 20 µM, a GI50 (SK-MEL-5 melanoma) of 4.83 µM and a TGI (SK-MEL-5 melanoma) of 17.8 µM. The GI50 (EKVX NSCLC) was 3.75 µM, the TGI (EKVX NSCLC) was 37.3 µM and the GI50 (NCI/ADR-RES ovarian) was 4.04 µM. It also gave a TGI (NCI/ADR-RES ovarian) of 49.5 µM, a GI50 (TK-10 renal) of 3.09 µM and a TGI (TK-10 renal) of 17.6 µM. The GI50 (RXF 393 renal) was 2.99 µM, the TGI (RXF 393 renal) was 12.7 µM and the GI50 (SK-OV-3 ovarian) was 11 µM. It also gave a TGI (SK-OV-3 ovarian) of 32.9 µM, a GI50 (PC-3 prostate) of 2.75 µM and a TGI (PC-3 prostate) of 14 µM. It also gave a GI50 (HS 578T breast) of 8.04 µM, a TGI (HS 578T breast) of 48.4 µM and a GI50 (U251 CNS) of 5.29 µM. It also gave a TGI (U251 CNS) of 24.2 µM, a GI50 (UACC-257 melanoma) of 6.4 µM and a TGI (UACC-257 melanoma) of 30.9 µM. The GI50 (T-47D breast) was 3.16 µM, the TGI (T-47D breast) was 17.5 µM and the GI50 (NCI-H460 lung) was 3.1 µM. For the same compound, the TGI (NCI-H460 lung) was 11.5 µM, the GI50 (HCT-116 colon) was 3.28 µM and the TGI (HCT-116 colon) was 16.9 µM. It also gave a GI50 (MDA-MB-435) of 3.06 µM, a TGI (MDA-MB-435) of 25 µM and a GI50 (CAKI-1 renal) of 3.12 µM. The TGI (CAKI-1 renal) was 12.7 µM, the GI50 (HCT-15 colon) was 3.05 µM and the TGI (HCT-15 colon) was 18.8 µM. The GI50 (HCC-2998 colon) was 3.58 µM, the TGI (HCC-2998 colon) was 18.3 µM and the GI50 (DU-145 prostate) was 8.22 µM. It also gave a TGI (DU-145 prostate) of 97.1 µM, a GI50 (MDA-MB-231 breast) of 9.63 µM and a TGI (MDA-MB-231 breast) of 29.6 µM. It also gave a GI50 (ACHN renal) of 3.25 µM, a TGI (ACHN renal) of 11.6 µM and a GI50 (HOP-62 NSCLC) of 8.74 µM. It also gave a TGI (HOP-62 NSCLC) of 34.2 µM, a GI50 (UO-31 renal) of 2.67 µM and a TGI (UO-31 renal) of 13.3 µM. It also gave a GI50 (HT29 colon) of 2.55 µM, a TGI (HT29 colon) of 8.75 µM and a GI50 (MDA-MB-468 breast) of 1.81 µM. For the same compound, the TGI (MDA-MB-468 breast) was 5.56 µM, the GI50 (SNB-75 CNS) was 2.01 µM and the TGI (SNB-75 CNS) was 14.6 µM. It also gave a GI50 (KM12 colon) of 4.67 µM, a TGI (KM12 colon) of 23.7 µM and a GI50 (COLO 205 colon) of 3.56 µM. It also gave a TGI (COLO 205 colon) of 12.3 µM, a GI50 (SF-539 CNS) of 5.4 µM and a TGI (SF-539 CNS) of 19.8 µM. For the same compound, the GI50 (A549 NSCLC) was 4.09 µM, the TGI (A549 NSCLC) was > 100 µM and the GI50 (OVCAR-3 ovarian) was 3.28 µM. It also gave a TGI (OVCAR-3 ovarian) of 22.7 µM, a GI50 (SNB-19 CNS) of 4.97 µM and a TGI (SNB-19 CNS) of 23.2 µM. The GI50 (SF-268 CNS) was 4.11 µM, the TGI (SF-268 CNS) was > 100 µM and the GI50 (IGROV1 ovarian) was 3.44 µM. The TGI (IGROV1 ovarian) was 14.7 µM, the GI50 (HL-60(TB) leukemia) was 2.33 µM and the TGI (HL-60(TB) leukemia) was 6.51 µM. It also gave a GI50 (OVCAR-4 ovarian) of 4.06 µM, a TGI (OVCAR-4 ovarian) of 33.5 µM and a GI50 (SN12C renal) of 4.23 µM. For the same compound, the TGI (SN12C renal) was 29.5 µM, the GI50 (MOLT-4 leukemia) was 2.62 µM and the TGI (MOLT-4 leukemia) was 13.2 µM. For the same compound, the GI50 (NCI-H226 lung) was 3.31 µM, the TGI (NCI-H226 lung) was 19.1 µM and the GI50 (M14 melanoma) was 4.2 µM. It also gave a TGI (M14 melanoma) of 17.8 µM, a GI50 (OVCAR-5 ovarian) of 4.54 µM and a TGI (OVCAR-5 ovarian) of 17.9 µM. The GI50 (SK-MEL-28 melanoma) was 4.69 µM, the TGI (SK-MEL-28 melanoma) was 16.4 µM and the GI50 (BT-549 breast) was 6.06 µM. The TGI (BT-549 breast) was 19.3 µM, the GI50 (NCI-H522 lung) was 2.84 µM and the TGI (NCI-H522 lung) was 14.8 µM. For the same compound, the GI50 (SF-295 CNS) was 3.28 µM, the TGI (SF-295 CNS) was 15.7 µM and the GI50 (SR leukemia) was 3.3 µM. For the same compound, the TGI (SR leukemia) was 27.2 µM, the GI50 (A498 renal) was 6.73 µM and the TGI (A498 renal) was 25.8 µM. The GI50 (MALME-3M melanoma) was 6.88 µM, the TGI (MALME-3M melanoma) was 23.6 µM and the GI50 (UACC-62 melanoma) was 3.45 µM. The TGI (UACC-62 melanoma) was 16 µM, the GI50 (MCF7 breast) was 2.78 µM and the TGI (MCF7 breast) was 14.2 µM. For the same compound, the GI50 (K-562 leukemia) was 3.2 µM, the TGI (K-562 leukemia) was 47.6 µM and the GI50 (RPMI-8226 leukemia) was 3.45 µM. The TGI (RPMI-8226 leukemia) was > 100 µM, the GI50 (SK-MEL-2 melanoma) was 6.22 µM and the TGI (SK-MEL-2 melanoma) was 21.1 µM. For the same compound, the GI50 (SW-620 colon) was 3.52 µM, the TGI (SW-620 colon) was 26.6 µM and the GI50 (786-0 renal) was 3.89 µM. It also gave a TGI (786-0 renal) of 22.5 µM.
